Results: the supplement of paper PMC10627819

Legend:
S. aureus Newman [1] = experiment: fitness (endpoint OD595 vs no drug) (fraction); higher = more growth
In short: (§1)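 Plates with 384 wells were inoculated at OD595 0.01 using 30 µl of TSB, LB Lennox or CY, or 55 µl for S. pneumoniae. Incubation was at 37 °C, with OD595 measured every 30 min for 14 h. Fitness is the stationary-phase transition optical density over the robust mean of no-drug control wells, after first-reading background subtraction; it is capped at 1.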

S. pneumoniae D39V [2] = experiment: as above
In short: as §1

B. subtilis 168 [3] = experiment: as above
In short: as §1

S. aureus Newman [4] = experiment: Bliss interaction score (quartile over a dose matrix) (fitness difference); higher = more antagonism (negative = synergy)
In short: (§2)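 Values were capped at 1 after dividing OD595 at stationary-phase entry by the plate's robust no-drug mean. This ratio is fitness, and single-drug fitness was inferred from the combination data. The Bliss score is observed minus product-expected fitness, given as quartiles over technical, biological and donor/recipient replicates.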

S. aureus DSM 20231 [5] = experiment: as above
In short: as §2

S. pneumoniae D39V [6] = experiment: as above
In short: as §2

B. subtilis 168 [7] = experiment: as above
In short: as §2

S. aureus DSM 20231 [8] = experiment: fitness (endpoint OD595 vs no drug) (fraction); higher = more growth; conditions: main component drawn
In short: as §1
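Wherever Bliss interaction score (quartile over a dose matrix) is given: first quartile when negative (synergy) and third quartile when positive (antagonism).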

O=C(O[C@@H]1Cc2c(O)cc(O)cc2O[C@@H]1c1cc(O)c(O)c(O)c1)c1cc(O)c(O)c(O)c1 [EGCG] + CN(C)c1cc(NC(=O)CNC(C)(C)C)c(O)c2c1C[C@H]1C[C@H]3[C@H](N(C)C)C(O)=C(C(N)=O)C(=O)[C@@]3(O)C(O)=C1C2=O [Tigecycline]
fitness
Conditions	first compound 6.25 µg/mL	first compound 12.5 µg/mL	first compound 25 µg/mL	first compound 50 µg/mL
B. subtilis 168 [3], partner 0.039 µg/mL	0.929	–	–	–
B. subtilis 168 [3], partner 0.078 µg/mL	0.929	–	–	–
B. subtilis 168 [3], partner 0.156 µg/mL	0.91	–	–	–
S. aureus Newman [1], partner 0.039 µg/mL	–	0.755	0.744	–
S. aureus Newman [1], partner 0.078 µg/mL	–	0.797	0.788	0.657
S. aureus Newman [1], partner 0.156 µg/mL	–	0.82	0.721	0.796
S. pneumoniae D39V [2], partner 0.325 µg/mL	–	0.913	0.97	0.958
S. pneumoniae D39V [2], partner 0.65 µg/mL	–	0.912	0.971	0.951
S. pneumoniae D39V [2], partner 1.3 µg/mL	–	0.928	0.916	0.954
S. pneumoniae D39V [2], partner 2.6 µg/mL	–	0.897	0.929	0.935

fitness, B. subtilis 168 [3], one replicate
Conditions	first compound 6.25 µg/mL	first compound 12.5 µg/mL	first compound 25 µg/mL
partner 0.125 µg/mL	≥ 1	0.897	0.55
partner 0.25 µg/mL	0.944	0.72	0.428
partner 0.5 µg/mL	0.942	0.757	0.418

Conditions	Bliss interaction score
B. subtilis 168 [7]	0.0564
S. aureus DSM 20231 [5]	-0.0488
S. aureus Newman [4]	-0.067
S. pneumoniae D39V [6]	0.079

O=C(O[C@@H]1Cc2c(O)cc(O)cc2O[C@@H]1c1cc(O)c(O)c(O)c1)c1cc(O)c(O)c(O)c1 [EGCG] + CN[C@@H]1[C@H](O[C@H]2[C@H](O[C@H]3[C@H](O)[C@@H](O)[C@H](N=C(N)N)[C@@H](O)[C@@H]3N=C(N)N)O[C@@H](C)[C@]2(O)C=O)O[C@@H](CO)[C@H](O)[C@H]1O [Streptomycin]
fitness
Conditions	first compound 6.25 µg/mL	first compound 12.5 µg/mL	first compound 25 µg/mL	first compound 50 µg/mL
B. subtilis 168 [3], partner 2 µg/mL	0.918	–	0.325	–
B. subtilis 168 [3], partner 4 µg/mL	0.823	0.718	0.299	–
B. subtilis 168 [3], partner 8 µg/mL	–	0.522	–	–
S. aureus Newman [1], partner 1 µg/mL	–	0.774	0.773	0.713
S. aureus Newman [1], partner 2 µg/mL	–	0.772	0.767	0.747
S. aureus Newman [1], partner 4 µg/mL	–	–	0.453	–
S. pneumoniae D39V [2], partner 2 µg/mL	–	0.887	0.933	0.937
S. pneumoniae D39V [2], partner 4 µg/mL	–	0.902	0.914	0.968
S. pneumoniae D39V [2], partner 8 µg/mL	–	0.881	0.943	0.981

S. pneumoniae D39V [2], partner 16 µg/mL, one replicate
Conditions	fitness
first compound 12.5 µg/mL	0.756
first compound 25 µg/mL	0.759
first compound 50 µg/mL	0.762

Conditions	Bliss interaction score
B. subtilis 168 [7]	0.303
S. aureus DSM 20231 [5]	0.136
S. aureus Newman [4]	0.0695
S. pneumoniae D39V [6]	0.0781

CCC[C@@H]1C[C@@H](C(=O)N[C@@H]([C@H]2O[C@H](SC)[C@H](O)[C@@H](O)[C@H]2O)[C@@H](C)O)N(C)C1 [Lincomycin] + CCCCCCCCCC(=O)N[C@@H]1[C@H]([C@@H]([C@H](O[C@H]1OC2=C3C=C4C=C2OC5=C(C=C(C=C5)[C@H]([C@H]6C(=O)N[C@@H](C7=C(C(=CC(=C7)O)OC8[C@H]([C@H]([C@@H]([C@H](O8)CO)O)O)O)C9=C(C=CC(=C9)[C@H](C(=O)N6)NC(=O)[C@@H]4NC(=O)[C@@H]1C2=CC(=CC(=C2)OC2=C(C=CC(=C2)[C@H](C(=O)N[C@H](CC2=CC(=C(O3)C=C2)Cl)C(=O)N1)N)O)O)O)C(=O)O)O[C@H]1[C@@H]([C@H]([C@@H]([C@H](O1)CO)O)O)NC(=O)C)Cl)CO)O)O [Teicoplanin]
fitness, S. aureus DSM 20231 [8]
Conditions	partner 0.1562 µg/mL	partner 0.3125 µg/mL	partner 0.625 µg/mL
first compound 0.1 µg/mL	0.913	0.979	≥ 1
first compound 0.2 µg/mL	0.825	0.821	0.941

main component drawn
Conditions	Bliss interaction score
B. subtilis 168 [7]	-0.111
S. aureus DSM 20231 [5]	0.118
S. aureus Newman [4]	0.179
S. pneumoniae D39V [6]	-0.0397

COc1c(N2C[C@@H]3CCCN[C@@H]3C2)c(F)cc2c(=O)c(C(=O)O)cn(C3CC3)c12 [Moxifloxacin] + CN(C)c1cc(NC(=O)CNC(C)(C)C)c(O)c2c1C[C@H]1C[C@H]3[C@H](N(C)C)C(O)=C(C(N)=O)C(=O)[C@@]3(O)C(O)=C1C2=O [Tigecycline]
fitness
Conditions	partner 0.039 µg/mL	partner 0.078 µg/mL	partner 0.156 µg/mL	partner 0.65 µg/mL	partner 1.3 µg/mL	partner 2.6 µg/mL
B. subtilis 168 [3], first compound 0.0312 µg/mL	0.0412	0.0391	0.0455	–	–	–
B. subtilis 168 [3], first compound 0.0625 µg/mL	0.0348	0.0627	0.0465	–	–	–
B. subtilis 168 [3], first compound 0.125 µg/mL	0.0497	0.0447	0.0454	–	–	–
B. subtilis 168 [3], first compound 2 µg/mL	0.0218	0.034	0.0374	–	–	–
B. subtilis 168 [3], first compound 4 µg/mL	0.0264	0.0295	0.0361	–	–	–
B. subtilis 168 [3], first compound 8 µg/mL	0.008	0.0149	0.0156	–	–	–
S. aureus Newman [1], first compound 0.0075 µg/mL	0.764	0.761	0.773	–	–	–
S. aureus Newman [1], first compound 0.03 µg/mL	0.0791	0.0794	0.113	–	–	–
S. pneumoniae D39V [2], first compound 0.0037 µg/mL	–	–	–	0.945	0.955	0.852
S. pneumoniae D39V [2], first compound 0.005 µg/mL	–	–	–	0.931	0.929	0.909
S. pneumoniae D39V [2], first compound 0.0075 µg/mL	–	–	–	0.937	0.94	0.905
S. pneumoniae D39V [2], first compound 0.01 µg/mL	–	–	–	0.965	0.946	0.932
S. pneumoniae D39V [2], first compound 0.015 µg/mL	–	–	–	0.932	0.929	0.901
S. pneumoniae D39V [2], first compound 0.02 µg/mL	–	–	–	0.835	0.94	0.971

fitness, B. subtilis 168 [3], one replicate
Conditions	first compound 0.0312 µg/mL	first compound 0.0625 µg/mL	first compound 0.125 µg/mL
partner 0.125 µg/mL	0.402	0.0347	0.0119
partner 0.25 µg/mL	0.325	0.0048	0.0005
partner 0.5 µg/mL	0.372	0.0104	0.0203

Conditions	Bliss interaction score
B. subtilis 168 [7]	-0.0275
S. aureus DSM 20231 [5]	-0.0652
S. aureus Newman [4]	-0.0557
S. pneumoniae D39V [6]	0.0824

COc1c(N2C[C@@H]3CCCN[C@@H]3C2)c(F)cc2c(=O)c(C(=O)O)cn(C3CC3)c12 [Moxifloxacin] + CN[C@@H]1[C@H](O[C@H]2[C@H](O[C@H]3[C@H](O)[C@@H](O)[C@H](N=C(N)N)[C@@H](O)[C@@H]3N=C(N)N)O[C@@H](C)[C@]2(O)C=O)O[C@@H](CO)[C@H](O)[C@H]1O [Streptomycin]
fitness
Conditions	partner 1 µg/mL	partner 2 µg/mL	partner 4 µg/mL	partner 8 µg/mL
B. subtilis 168 [3], first compound 0.0312 µg/mL	–	0.0439	0.0414	0.0382
B. subtilis 168 [3], first compound 0.0625 µg/mL	–	0.0428	0.0341	0.0226
B. subtilis 168 [3], first compound 0.125 µg/mL	–	0.041	0.0379	0.0381
B. subtilis 168 [3], first compound 2 µg/mL	–	0.0315	0.0296	0.0146
B. subtilis 168 [3], first compound 4 µg/mL	–	0.0231	0.0178	0.0188
B. subtilis 168 [3], first compound 8 µg/mL	–	0.013	0.0133	0.0206
S. aureus Newman [1], first compound 0.0075 µg/mL	0.834	0.733	–	–
S. aureus Newman [1], first compound 0.015 µg/mL	–	0.606	–	–
S. aureus Newman [1], first compound 0.03 µg/mL	–	0.201	0.0711	–
S. pneumoniae D39V [2], first compound 0.0037 µg/mL	–	–	0.891	0.785
S. pneumoniae D39V [2], first compound 0.005 µg/mL	–	0.922	0.944	0.892
S. pneumoniae D39V [2], first compound 0.0075 µg/mL	–	–	0.904	0.837
S. pneumoniae D39V [2], first compound 0.01 µg/mL	–	0.94	0.958	0.925
S. pneumoniae D39V [2], first compound 0.015 µg/mL	–	–	0.882	0.82
S. pneumoniae D39V [2], first compound 0.02 µg/mL	–	0.881	0.9	0.861

fitness, S. pneumoniae D39V [2], one replicate
Conditions	first compound 0.0037 µg/mL	first compound 0.0075 µg/mL	first compound 0.015 µg/mL
partner 2 µg/mL	0.903	0.908	0.919
partner 16 µg/mL	0.699	0.743	0.685

Conditions	Bliss interaction score
B. subtilis 168 [7]	0.0188
S. aureus DSM 20231 [5]	0.0517
S. aureus Newman [4]	-0.031
S. pneumoniae D39V [6]	0.0604

C/C(=C\C(=O)OCCCCCCCCC(=O)O)C[C@@H]1OC[C@H](C[C@@H]2O[C@H]2[C@@H](C)[C@H](C)O)[C@@H](O)[C@H]1O [Pseudomonic acid] + Cc1cc(NS(=O)(=O)c2ccc(N)cc2)no1 [Sulfamethoxazol]
fitness, S. aureus Newman [1], one replicate
Conditions	first compound 0.0313 µg/mL	first compound 0.0625 µg/mL	first compound 0.125 µg/mL
partner 1 µg/mL	0.0339	0.0352	0.0377
partner 2 µg/mL	0.0298	0.0242	0.0254
partner 4 µg/mL	0.0109	0.0216	0.0232

fitness, S. pneumoniae D39V [2]
Conditions	first compound 0.03 µg/mL	first compound 0.06 µg/mL	first compound 0.12 µg/mL
partner 1 µg/mL	0.907	0.784	–
partner 2 µg/mL	0.896	0.776	–
partner 4 µg/mL	0.877	0.769	0.579

Conditions	Bliss interaction score
B. subtilis 168 [7]	-0.0453
S. aureus DSM 20231 [5]	-0.0246
S. aureus Newman [4]	-0.0317
S. pneumoniae D39V [6]	-0.0659

C/C(=C\C(=O)OCCCCCCCCC(=O)O)C[C@@H]1OC[C@H](C[C@@H]2O[C@H]2[C@@H](C)[C@H](C)O)[C@@H](O)[C@H]1O [Pseudomonic acid] + Cn1nnc(-c2ccc(-c3ccc(N4C[C@H](CO)OC4=O)cc3F)cn2)n1 [Tedizolid]
fitness, S. aureus Newman [1], one replicate
Conditions	first compound 0.0313 µg/mL	first compound 0.0625 µg/mL	first compound 0.125 µg/mL
partner 0.0625 µg/mL	0.0219	0.0311	0.031
partner 0.125 µg/mL	0.0244	0.0131	0.0219
partner 0.25 µg/mL	0.0038	0.0239	0.018

fitness, S. pneumoniae D39V [2]
Conditions	partner 0.03125 µg/mL	partner 0.0625 µg/mL	partner 0.125 µg/mL	partner 0.25 µg/mL	partner 0.5 µg/mL
first compound 0.03 µg/mL	0.963	0.965	0.82	0.777	–
first compound 0.06 µg/mL	0.881	0.9	0.759	0.767	0.516
first compound 0.12 µg/mL	0.925	0.923	0.707	0.587	0.382

Conditions	Bliss interaction score
B. subtilis 168 [7]	-0.0611
S. aureus DSM 20231 [5]	0.0061
S. aureus Newman [4]	0.011
S. pneumoniae D39V [6]	0.21
